The record followed here is paper PMC11009276, “Design, synthesis, biological assessment and molecular modeling studies of novel imidazothiazole-thiazolidinone hybrids as potential anticancer and anti-inflammatory agents” (Scientific Reports, 2024).

SMILES strings stand for the structures.

Series [1] has as its system HEK293 human embryonic kidney cell line. Put plainly: MTT cytotoxicity assay, normal cell line HEK293. Type of series: cell-based. The settings on record: HEK293, MTT, 72 h, normal cell line, read-out: IC50 (Mean ± SD) HEK293. How it is done:
All the synthesized imidazothiazole derivatives linked with thiazolidinone moiety (4a-g and 5a-d, Fig. 4) were evaluated for their in- vitro anticancer activities against three selected human cancer cell lines namely non-small lung (A549), breast (MCF7) and colorectal (HCT116) and one normal human embryonic kidney cell line (HEK293) using the 3‐(4,5‐Dimethylthiazol‐2‐yl)-2,5‐Diphenyltetrazolium Bromide (MTT) assay method. […]. […].
Cytotoxicity study of the newly synthesized derivatives 4a-g and 5a-d was performed by MTT colorimetric assay method. […] Compounds were tested against selected cancer cell lines namely A549 (Lung), MCF-7(Breast) HCT116 (Colon), normal human embryonic kidney cell line (HEK293) and procured from National Centre for Cell Science Complex (NCCS) Pune University, India. Into a 96 well plate, cells were seeded into each well (3 × 10^3 cells/ per well), the plate were incubated for 24 h, after that the culture medium was discarded and replaced with fresh medium along with our newly synthesized test compounds in different concentration (10, 20, 40 and 80 µM) followed by incubation for 72 h. Further, the media of each well of the plates were aspirated with the addition of 100 µL MTT solution followed by incubation for the next 5 h at 37 °C. Finally, each well is treated with DMSO (100 µL) and swirled to dissolve the dark crystals of formazan. ELISA reader was used to measure the absorbance at 570 nm. The experiment was repeated three times; Graph pad prism and excel are used to calculate the IC50 values.

Another series concerns A549 cells. Put plainly: AO/EB dual staining apoptosis assay. Type of series: cell-based, human. The settings on record: vs control. The protocol: An early and late apoptotic along with necrotic cells were also observed in active compounds (4a-c) treated A549 cells (Fig. 9b).
A549 cell lines were cultured in six-well plates at 4 × 10^4 cells/well and then these cells were treated with 1.56 and 12.5 μg mL^−1 of […] for 48 h respectively. Further, Cells were harvested and stained with AO-EtBr dye mix (1:1 v/v from 100 μg mL^−1 in PBS) and studied using a fluorescent microscope.

The subject of series [2] is HCT116 human colorectal cancer cell line. Put plainly: MTT cytotoxicity assay, HCT116. The settings on record: HCT-116, 72 h, read-out: IC50 (µM) (Mean ± SD) HCT116.
Method: All the synthesized imidazothiazole derivatives linked with thiazolidinone moiety (4a-g and 5a-d, Fig. 4) were evaluated for their in- vitro anticancer activities against three selected human cancer cell lines namely non-small lung (A549), breast (MCF7) and colorectal (HCT116) and one normal human embryonic kidney cell line (HEK293) using the 3‐(4,5‐Dimethylthiazol‐2‐yl)-2,5‐Diphenyltetrazolium Bromide (MTT) assay method. […] Compounds were tested against selected cancer cell lines namely A549 (Lung), MCF-7(Breast) HCT116 (Colon), normal human embryonic kidney cell line (HEK293) and procured from National Centre for Cell Science Complex (NCCS) Pune University, India. Into a 96 well plate, cells were seeded into each well (3 × 10^3 cells/ per well), the plate were incubated for 24 h, after that the culture medium was discarded and replaced with fresh medium along with our newly synthesized test compounds in different concentration (10, 20, 40 and 80 µM) followed by incubation for 72 h. […] Finally, each well is treated with DMSO (100 µL) and swirled to dissolve the dark crystals of formazan. ELISA reader was used to measure the absorbance at 570 nm. The experiment was repeated three times; Graph pad prism and excel are used to calculate the IC50 values[51].
Series [3] in a line: Acute oral toxicity study. The settings on record: Wistar, rat, in vivo, 500 mg/kg. The protocol: Doxorubicin is used as standard drug […].
Animals (Wistar rats) procured were divided into three groups randomly, with six rats in each group. […] Group III is taken as control; all the animals were treated with 0.5 ml of sunflower oil per rat. All the animals were under observation, and after 24 h, mortality of treated animals was recorded. […] All the experiments performed were carried out with the approval of the IAEC, Jamia Hamdard, New Delhi.

The IC50 is the concentration that gives 50% inhibition. What is called melting point is the temperature, or range, at which the solid turns liquid. With `CC1SC(c2c(-c3ccccc3)nc3sccn23)N(c2ccc(F)cc2)C1=O` (stereo not drawn) [Compound 4a, 3-(4-Fluorophenyl)-5-methyl-2-(6-phenylimidazo[2,1-b]thiazol-5-yl) thiazolidin-4-one], the melting point was in the range of 165 to 167 °C. Also, in series [1], the IC50 is 147 ± 4.3 µM. The “Apoptotic cells (AO/EB dual staining)” value in the series on A549 cells is “number of apoptotic cells enhanced”. The IC50 in series [2] turned out to be 23.7 ± 0.85 µM.

What is called LD50 is the dose at which mortality reaches 50%. With `CC1SC(c2c(-c3ccccc3)nc3sccn23)N(c2ccc(Cl)cc2)C1=O` (stereo not drawn) [Compound 4b, 3-(4-Chlorophenyl)-5-methyl-2-(6-phenylimidazo[2,1-b]thiazol-5-yl) thiazolidin-4-one], the values for the IC50 in series [1] and in series [2] were 101 ± 3.41 µM and 45 ± 1.02 µM, respectively. This molecule also came in with an LD50 at 14 days in series [3] above 500 mg/kg. Moreover, in the series with A549 cells, the “Apoptotic cells (AO/EB dual staining)” value is given as “number of apoptotic cells enhanced”.

`CC1SC(c2c(-c3ccccc3)nc3sccn23)N(c2ccc(Br)cc2)C1=O` (stereo not drawn) [Compound 4c, 3-(4-Bromophenyl)-5-methyl-2-(6-phenylimidazo[2,1-b]thiazol-5-yl) thiazolidin-4-one]: the IC50 in series [1] is 96.4 ± 1.79 µM; in series [2] it was 23.2 ± 1.89 µM. For the same molecule, the LD50 at 14 days in series [3] is above 500 mg/kg. Further, the “Apoptotic cells (AO/EB dual staining)” value in the series on A549 cells is “number of apoptotic cells enhanced”.
